Assay results from patent US20220016092A1, “METHODS FOR TREATING SYMPTOMS AND DISORDERS ASSOCIATED WITH LYSOSOMAL STORAGE DISEASES” (GENZYME CORPORATION, priority 2019, published 2022).
Where two headings read alike, the source gives them in different places.

Assays:
[1] = test system: healthy, human volunteers; experiment: Phase 1 studies in healthy volunteers: safety; format: in vivo
Experimental: Compound 2 is also known as venglustat.
In all studies, safety profile was assessed by monitoring treatment-emergent adverse events (TEAEs) through 10 days after last dose of study medication, including serious adverse events [SAEs]), ECG monitoring, laboratory values, and physical examinations.

[2] = Study 2: ascending repeated-dose pharmacokinetics in healthy volunteers; format: in vivo, human; conditions: for AUC(0-t) / Cmax / Tmax / CL renal: both sexes, human, oral; for AUC(0-t) / Cmax / Tmax: plasma; for Tmax: read-out: tmax, median (range); for CL renal: urine and plasma
[3] = test system: GM3 expression in B16 mouse melanoma cells; experiment: GM3 fluorescent-linked immunosorbent assay (FLISA), B16 cells; format: cell-based; conditions: 48 hours
Excerpt: Inhibition of glucosylceramide synthase activity can be measured with one or more assays. A first assay is a microsomal assay that directly measures the conversion of ceramide to glucosylceramide by HPLC. Microsomes are a source of glucosylceramide synthase activity in the microsomal assay. A second assay is a cell based, phenotypic assay that monitors cell surface expression of the downstream lipid GM3 by antibody mediated immunofluorescence. Specific protocols are provided below.
This is a phenotypic assay that measures GM3 expression in B16 mouse melanoma or C32 human melanoma cells following treatment with test compounds. Cell surface GM3 expression is determined by antibody mediated fluorescence.
Compounds are diluted in media and plated in 384 well plates in DMSO. B16 and C32 cells are assayed at densities of 20,000 cells/ml and 62,500 cells/ml, respectively, per well. Each titration curve contains 10 points that are assayed in duplicate on each test run. The plates are incubated for 48 hours at 37° C., 5% CO2, and are then washed once with TBS. Anti-GM3 antibody is added to each well and the plates are then incubated for an additional one hour at room temperature. Plates are subsequently washed twice and incubated for an additional hour with the labeled secondary antibody. Following the final incubation, the plates are washed twice and the fluorescence at λex=D640/20 nm and λem=657 nm is detected on a fluorescent reader.
The results of the microsomal assays are expressed as “GCS IC50”, which represents the concentration of the compound causing 50% inhibition of glucosylceramide synthase activity. The results of the cell-based assays are expressed as “GM3 B16 IC50” or “GM3 C32 IC50” for the B16 assay and the C32 assay, respectively. These values represent the concentration of the compound causing 50% inhibition of GM3 expression on the cell surface.

[4] = test system: adult male Fabry patients; experiment: Clinical study in Fabry disease patients: SF-36 bodily pain and abdominal pain; format: in vivo, human; conditions: 15 mg/day oral
Experimental: A three-year open-label investigation of Compound 2 in young classic Fabry disease patients was conducted in order to evaluate the long-term safety, pharmacodynamics and exploratory efficacy of Compound 2 in adult male Fabry patients. Eleven subjects enrolled in the study, and seven subjects completed all aspects of the study. All subjects were males diagnosed with classic Fabry disease confirmed by genotype and residual alpha-galactosidase activity below detection levels (9 of the 11 had nonsense mutation in the GLA gene). All subjects had lyso-GL3 levels in plasma of at least 65 ng/mL and had no prior Fabry disease-specific treatment. The median age of subject was 24 years (range 19-37).
Each sample was scored independently by 3 pathologists for the presence of GL-3 inclusions on a four-point scale, and rated as 0 (no/trace), 1 (mild), 2 (moderate), or 3 (severe) according to Eng et al., N. Engl. J. Med. 345:9-16 (2001). A single score per patient per time point was derived by taking the score rated by the majority of the three pathologists. If a majority score could not be derived, then the median score was used (resulting in some fractional scores). Plasma samples were also analyzed for GL-3, lyso-GL-3, GL-1 and GM3 at baseline and weeks 12, 26, 52 and 156. […]
Patients were assessed using the Short Form-36 (SF-36) questionnaire on numerous visits from baseline to week 156. This is a 36-item questionnaire used to measure 8 various aspects of health (vitality, physical functioning, bodily pain, general health perceptions, physical role functioning, emotional role functioning, social role functioning and mental health). The score for each of the eight aspects ranges from 0 (maximum disability) to 100 (no disability), and thus, higher scores indicate good health condition. In addition, gastrointestinal symptoms, including abdominal pain, abdominal distention, and bowl movements, were assessed using a modified version of the inflammatory bowel severity scoring system. Particular questions asked as part of these assessments included: (1) whether the patient suffered abdominal pain within the last ten days, (2) what was the severity of abdominal pain suffered in the last ten days using a 0 (no pain) to 100 (very severe pain) scale, and (3) on how many days within the last ten days did the patient have abdominal pain.

With `CC(C)(NC(=O)O[C@@H]1CN2CCC1CC2)c1csc(-c2ccc(F)cc2)n1` [Compound 2, (S)-quinuclidin-3-yl 2-(2-(4-fluorophenyl)thiazol-4-yl)propan-2-ylcarbamate] the “Hematologic or biochemical abnormalities” value ([1]; all Phase 1 studies) was “No clinically relevant hematologic or biochemical abnormalities”, the Vital signs ([1]; all Phase 1 studies) was “no relevant changes from baseline” and the “Deaths, SAEs, severe TEAEs, discontinuations” value ([1]; all Phase 1 studies (single 2-150 mg; 5-20 mg daily for 14 days)) was “no deaths, SAEs, severe TEAEs, or TEAEs leading to study discontinuation”. For the same compound, the ECG parameters ([1]; single ascending dose and food effect studies) was “no relevant changes”, the AUC(0-t) ([2]; 5 mg, healthy adults, 5 mg once daily, Day 1 (N = 9), read-out: AUC0-24, Geometric mean (CV)) was 0.292 µg·h/mL and the AUC(0-t) ([2]; 5 mg, healthy adults, 5 mg once daily, Day 1 (N = 9), read-out: AUC0-24, Mean (SD)) was 0.296 µg·h/mL. It also gave a Cmax ([2]; 5 mg, healthy adults, 5 mg once daily, Day 1 (N = 9), read-out: Cmax, Geometric mean (CV)) of 0.0182 µg/mL, a Cmax ([2]; 5 mg, healthy adults, 5 mg once daily, Day 1 (N = 9), read-out: Cmax, Mean (SD)) of 0.0185 µg/mL and a Tmax ([2]; 5 mg, healthy adults, 5 mg once daily, Day 1 (N = 9)) of 5 h. The AUC(0-t) ([2]; 5 mg, healthy adults, 5 mg once daily, Day 14 (N = 9), read-out: AUC0-24, Geometric mean (CV)) was 0.632 µg·h/mL, the AUC(0-t) ([2]; 5 mg, healthy adults, 5 mg once daily, Day 14 (N = 9), read-out: AUC0-24, Mean (SD)) was 0.642 µg·h/mL and the Cmax ([2]; 5 mg, healthy adults, 5 mg once daily, Day 14 (N = 9), read-out: Cmax, Geometric mean (CV)) was 0.0365 µg/mL. It also gave a Cmax ([2]; 5 mg, healthy adults, 5 mg once daily, Day 14 (N = 9), read-out: Cmax, Mean (SD)) of 0.037 µg/mL, a Tmax ([2]; 5 mg, healthy adults, 5 mg once daily, Day 14 (N = 9)) of 3 h and an AUC(0-t) ([2]; 10 mg, healthy adults, 10 mg once daily, Day 1 (N = 9), read-out: AUC0-24, Geometric mean (CV)) of 0.623 µg·h/mL. For the same compound, the AUC(0-t) ([2]; 10 mg, healthy adults, 10 mg once daily, Day 1 (N = 9), read-out: AUC0-24, Mean (SD)) was 0.635 µg·h/mL, the Cmax ([2]; 10 mg, healthy adults, 10 mg once daily, Day 1 (N = 9), read-out: Cmax, Geometric mean (CV)) was 0.0378 µg/mL and the Cmax ([2]; 10 mg, healthy adults, 10 mg once daily, Day 1 (N = 9), read-out: Cmax, Mean (SD)) was 0.0385 µg/mL. For the same compound, the Tmax ([2]; 10 mg, healthy adults, 10 mg once daily, Day 1 (N = 9)) was 3 h, the AUC(0-t) ([2]; 10 mg, healthy adults, 10 mg once daily, Day 14 (N = 9), read-out: AUC0-24, Geometric mean (CV)) was 1.49 µg·h/mL and the AUC(0-t) ([2]; 10 mg, healthy adults, 10 mg once daily, Day 14 (N = 9), read-out: AUC0-24, Mean (SD)) was 1.55 µg·h/mL. The Cmax ([2]; 10 mg, healthy adults, 10 mg once daily, Day 14 (N = 9), read-out: Cmax, Geometric mean (CV)) was 0.086 µg/mL, the Cmax ([2]; 10 mg, healthy adults, 10 mg once daily, Day 14 (N = 9), read-out: Cmax, Mean (SD)) was 0.0897 µg/mL and the Tmax ([2]; 10 mg, healthy adults, 10 mg once daily, Day 14 (N = 9)) was 2 h. It also gave an AUC(0-t) ([2]; 20 mg, healthy adults, 20 mg once daily, Day 1 (N = 9), read-out: AUC0-24, Geometric mean (CV)) of 1.08 µg·h/mL, an AUC(0-t) ([2]; 20 mg, healthy adults, 20 mg once daily, Day 1 (N = 9), read-out: AUC0-24, Mean (SD)) of 1.1 µg·h/mL and a Cmax ([2]; 20 mg, healthy adults, 20 mg once daily, Day 1 (N = 9), read-out: Cmax, Geometric mean (CV)) of 0.0665 µg/mL. For the same compound, the Cmax ([2]; 20 mg, healthy adults, 20 mg once daily, Day 1 (N = 9), read-out: Cmax, Mean (SD)) was 0.068 µg/mL, the Tmax ([2]; 20 mg, healthy adults, 20 mg once daily, Day 1 (N = 9)) was 3.07 h and the AUC(0-t) ([2]; 20 mg, healthy adults, 20 mg once daily, Day 14 (N = 9), read-out: AUC0-24, Geometric mean (CV)) was 2.34 µg·h/mL. For the same compound, the AUC(0-t) ([2]; 20 mg, healthy adults, 20 mg once daily, Day 14 (N = 9), read-out: AUC0-24, Mean (SD)) was 2.42 µg·h/mL, the Cmax ([2]; 20 mg, healthy adults, 20 mg once daily, Day 14 (N = 9), read-out: Cmax, Geometric mean (CV)) was 0.137 µg/mL and the Cmax ([2]; 20 mg, healthy adults, 20 mg once daily, Day 14 (N = 9), read-out: Cmax, Mean (SD)) was 0.142 µg/mL. For the same compound, the Tmax ([2]; 20 mg, healthy adults, 20 mg once daily, Day 14 (N = 9)) was 3 h, the CL renal ([2]; 5 mg, healthy adults, 5 mg once daily, Day 14 (N = 9), read-out: CLR(0-24), Mean (SD) (converted)) was 25.8 mL/min and the CL renal ([2]; 10 mg, healthy adults, 10 mg once daily, Day 14 (N = 9), read-out: CLR(0-24), Geometric mean (CV) (converted)) was 23.3 mL/min. It also gave a CL renal ([2]; 10 mg, healthy adults, 10 mg once daily, Day 14 (N = 9), read-out: CLR(0-24), Mean (SD) (converted)) of 24.8 mL/min, a CL renal ([2]; 20 mg, healthy adults, 20 mg once daily, Day 14 (N = 9), read-out: CLR(0-24), Geometric mean (CV) (converted)) of 33.3 mL/min and a CL renal ([2]; 20 mg, healthy adults, 20 mg once daily, Day 14 (N = 9), read-out: CLR(0-24), Mean (SD) (converted)) of 34.5 mL/min. For the same compound, the “CLss/F, Geometric mean (CV)” value ([2]; healthy adults, 5 mg once daily, Day 14 (N = 9)) was 5.9 (19.5) L/h, the “CLss/F, Geometric mean (CV)” value ([2]; healthy adults, 10 mg once daily, Day 14 (N = 9)) was 5.0 (24.4) L/h and the “CLss/F, Geometric mean (CV)” value ([2]; healthy adults, 20 mg once daily, Day 14 (N = 9)) was 6.4 (25.8) L/h. The “Ctrough values over time” value ([2]; healthy adults, 5, 10, or 20 mg once daily for 14 days) was “reached a plateau after Day 5”, the “Time to steady state” value ([2]; healthy adults, repeated once-daily doses from 5-20 mg) was no more than 5 days and the IC50 [3] was 0.107 µM. The “Number of Patients Reporting Yes to Abdominal Pain in 10-Days Preceding Visit” value (from here on “Number of Patients Reporting Yes”) ([4]; 4 weeks) was 4/11, the “Abdominal Pain Severity Score in 10-Days Preceding Visit (mean value, 0-100 scale)” value (“Abdominal Pain Severity Score” for short) ([4]; 4 weeks (n = 4)) was 29.75 and the “Number of Days within Preceding 10 Days with Abdominal Pain (mean value)” value (from here on “Number of Days within Preceding 10 Days”) ([4]; 4 weeks (n = 4)) was 2.50. For the same compound, the “Number of Patients Reporting Yes” value ([4]; 12 weeks) was 2/10, the “Abdominal Pain Severity Score” value ([4]; 12 weeks (n = 2)) was 40.00 and the “Number of Days within Preceding 10 Days” value ([4]; 12 weeks (n = 2)) was 3.50. For the same compound, the “Number of Patients Reporting Yes” value ([4]; 26 weeks) was 3/9, the “Abdominal Pain Severity Score” value ([4]; 26 weeks (n = 3)) was 31.33 and the “Number of Days within Preceding 10 Days” value ([4]; 26 weeks (n = 3)) was 3.00. For the same compound, the “Number of Patients Reporting Yes” value ([4]; 52 weeks) was 2/7, the “Abdominal Pain Severity Score” value ([4]; 52 weeks (n = 1)) was 21.00 and the “Number of Days within Preceding 10 Days” value ([4]; 52 weeks (n = 3)) was 0.70. For the same compound, the “Number of Patients Reporting Yes” value ([4]; 104 weeks) was 2/7, the “Abdominal Pain Severity Score” value ([4]; 104 weeks (n = 1)) was 21.00 and the “Number of Patients Reporting Yes” value ([4]; 156 weeks) was 2/7. For the same compound, the “Abdominal Pain Severity Score” value ([4]; 156 weeks (n = 2)) was 15.00, the “Number of Days within Preceding 10 Days” value ([4]; 156 weeks (n = 2)) was 0.20 and the “Patients with decreased severity of abdominal pain, among those with gastrointestinal pain at baseline” value ([4]; week 26) was “four out of five”. For the same compound, the “Patients with improved overall bodily pain scores (SF-36)” value ([4]; week 26) was “Seven of nine”, the “Patients with reduced number of days with gastrointestinal pain” value ([4]; week 26) was “five of five” and the “Patients with decreased severity of abdominal pain, among those with gastrointestinal pain at baseline” value ([4]; week 156) was “four out of four”. The “Patients with improved overall bodily pain scores (SF-36)” value ([4]; week 156) was “three of six” and the “Patients with reduced number of days with gastrointestinal pain” value ([4]; week 156) was “three of four”.
